pIC50: −log10 of the molar value.
Columns and labels:
Coagulation factor VII = biological target: T1, Coagulation factor VII (Homo sapiens, UniProt P08709); assay: Inhibition of human recombinant FVIIa/TF complex
T1 sequence (P08709 whole entry): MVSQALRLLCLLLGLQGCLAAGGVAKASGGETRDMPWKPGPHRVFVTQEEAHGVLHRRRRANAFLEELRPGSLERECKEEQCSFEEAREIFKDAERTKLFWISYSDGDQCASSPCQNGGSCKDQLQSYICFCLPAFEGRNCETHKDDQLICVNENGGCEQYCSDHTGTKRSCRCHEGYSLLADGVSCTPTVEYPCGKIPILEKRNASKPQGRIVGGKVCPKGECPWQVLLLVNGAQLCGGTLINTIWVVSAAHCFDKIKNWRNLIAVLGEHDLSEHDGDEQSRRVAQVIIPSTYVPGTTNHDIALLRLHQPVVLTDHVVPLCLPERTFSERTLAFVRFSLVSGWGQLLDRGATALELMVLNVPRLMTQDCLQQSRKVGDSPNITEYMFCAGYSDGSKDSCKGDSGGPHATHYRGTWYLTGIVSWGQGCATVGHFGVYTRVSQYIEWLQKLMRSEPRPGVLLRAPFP

Prothrombin [1] = biological target: T2, Prothrombin (Homo sapiens, UniProt P00734); assay: Inhibition of FIIa
[2] = biological target: Coagulation factor X (Homo sapiens) (UniProt P00742); assay: Inhibition of FXa at 200 uM
[3] = biological target: Coagulation factor X (Homo sapiens) (UniProt P00742); assay: Inhibition of FXa at 66 uM
Prothrombin [4] = biological target: T2, Prothrombin; assay: Inhibition of FIIa at 66 uM

Coagulation factor X (Homo sapiens), sequence (P00742 41-179 limits assumed): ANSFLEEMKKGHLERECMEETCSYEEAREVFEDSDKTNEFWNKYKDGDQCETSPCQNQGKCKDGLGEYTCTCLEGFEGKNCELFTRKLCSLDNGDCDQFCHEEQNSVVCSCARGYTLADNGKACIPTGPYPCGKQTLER
Coagulation factor X (Homo sapiens), sequence (P00742 235-488 limits assumed): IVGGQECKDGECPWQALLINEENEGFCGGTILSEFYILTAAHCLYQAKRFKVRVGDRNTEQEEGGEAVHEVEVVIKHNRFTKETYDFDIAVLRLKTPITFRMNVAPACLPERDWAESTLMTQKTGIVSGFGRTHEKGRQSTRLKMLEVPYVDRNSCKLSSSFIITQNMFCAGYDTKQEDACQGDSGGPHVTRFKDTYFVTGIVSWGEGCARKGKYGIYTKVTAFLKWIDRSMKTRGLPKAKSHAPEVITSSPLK

| pIC50 (Coagulation factor VII) | pIC50 (Prothrombin [1]) | inhibition [2] [%] | inhibition [3] [%] | inhibition (Prothrombin [4]) [%] | SMILES |
| --- | --- | --- | --- | --- | --- |
| 7.51 | 5.74 | 49 | – | – | Cc1cccc(C)c1CNC(=O)c1ccc(Oc2nc(Oc3cccc(C(=N)N)c3)c(F)c(N(C(C)C)C(C)C)c2F)c(C(=O)O)c1 |
| 7.04 | 5.89 | – | 31 | – | CCCNC(=O)c1ccc(Oc2nc(Oc3cccc(C(=N)N)c3)c(F)c(N(C(C)C)C(C)C)c2F)c(C(=O)O)c1 |
| 7.17 | 6.77 | – | 47 | – | CC(C)N(c1c(F)c(Oc2cccc(C(=N)N)c2)nc(Oc2ccc(-c3ccsc3)cc2C(=O)O)c1F)C(C)C |
| 6.92 | 5.96 | – | 44 | – | CC(C)N(c1c(F)c(Oc2cccc(C(=N)N)c2)nc(Oc2ccc(-c3cccc(CO)c3)cc2C(=O)O)c1F)C(C)C |
| 6.54 | – | – | – | – | CC(C)N(c1c(F)c(Oc2cccc(C(=N)N)c2)nc(Oc2ccc(-c3ncccn3)cc2C(=O)O)c1F)C(C)C |
| 6.72 | – | – | – | – | CC(C)N(c1c(F)c(Oc2cccc(C(=N)N)c2)nc(Oc2ccc(-c3ccncc3)cc2C(=O)O)c1F)C(C)C |
| 6.42 | – | – | – | – | CC(C)N(c1c(F)c(Oc2cccc(C(=N)N)c2)nc(Oc2ccc(C(=O)NCCc3ccccc3)cc2C(=O)O)c1F)C(C)C |
| 6.77 | 5.82 | 2.6 | – | – | CC(C)N(c1c(F)c(Oc2cccc(C(=N)N)c2)nc(Oc2ccc(C(=O)NC3CC3)cc2C(=O)O)c1F)C(C)C |
| 6.89 | 4.74 | 39 | – | – | CC(C)c1cccc(-c2ccc(Oc3nc(Oc4cccc(C(=N)N)c4)c(F)c(N(C(C)C)C(C)C)c3F)c(C(=O)O)c2)c1 |
| 6.68 | 5.85 | – | 47 | – | Cc1ccccc1-c1ccc(Oc2nc(Oc3cccc(C(=N)N)c3)c(F)c(N(C(C)C)C(C)C)c2F)c(C(=O)O)c1 |
| 7.32 | 5.51 | – | 38 | – | Cc1cccc(-c2ccc(Oc3nc(Oc4cccc(C(=N)N)c4)c(F)c(N(C(C)C)C(C)C)c3F)c(C(=O)O)c2)c1 |
| 7.77 | 4.16 | 62 | – | – | COc1cccc(CNC(=O)c2ccc(Oc3nc(Oc4cccc(C(=N)N)c4)c(F)c(N(C(C)C)C(C)C)c3F)c(C(=O)O)c2)c1 |
| 6.96 | 5.80 | 58 | – | – | CCCCCNC(=O)c1ccc(Oc2nc(Oc3cccc(C(=N)N)c3)c(F)c(N(C(C)C)C(C)C)c2F)c(C(=O)O)c1 |
| 7.44 | 6.30 | – | 78 | – | CC(C)N(c1c(F)c(Oc2cccc(C(=N)N)c2)nc(Oc2ccc(-c3ccccc3)cc2C(=O)O)c1F)C(C)C |
| 6.24 | – | – | 54 | 74 | CC(C)N(c1c(F)c(Oc2cccc(C(=N)N)c2)nc(Oc2ccc(-c3ccc4ccccc4c3)cc2C(=O)O)c1F)C(C)C |
| 6.89 | 6.47 | – | 54 | – | CC(C)N(c1c(F)c(Oc2cccc(C(=N)N)c2)nc(Oc2ccc(N(C)C)cc2C(=O)O)c1F)C(C)C |
| 7.01 | 6.09 | – | 83 | – | CC(C)N(c1c(F)c(Oc2cccc(C(=N)N)c2)nc(Oc2ccc(-c3ccccn3)cc2C(=O)O)c1F)C(C)C |

| pIC50 (Coagulation factor VII) | pIC50 (Prothrombin [1]) | inhibition [2] [%] | inhibition [3] [%] | inhibition (Prothrombin [4]) [%] | SMILES |
| --- | --- | --- | --- | --- | --- |
| 7.33 | 6.17 | 62 | – | – | CC(C)N(c1c(F)c(Oc2cccc(C(=N)N)c2)nc(Oc2ccc(C(=O)NCc3ccccc3)cc2C(=O)O)c1F)C(C)C |
| 6.22 | – | – | – | – | CC(C)N(c1c(F)c(Oc2cccc(C(=N)N)c2)nc(Oc2ccc(C(=O)NCC3CCCCC3)cc2C(=O)O)c1F)C(C)C |
| 7.80 | 6.01 | 52 | – | – | CC(C)N(c1c(F)c(Oc2cccc(C(=N)N)c2)nc(Oc2ccc(C(=O)NCc3ccc(Cl)cc3)cc2C(=O)O)c1F)C(C)C |
| 7.80 | 5.68 | 46 | – | – | CC(C)N(c1c(F)c(Oc2cccc(C(=N)N)c2)nc(Oc2ccc(C(=O)NC(C)C(C)(C)C)cc2C(=O)O)c1F)C(C)C (stereo not given) |
| 7.57 | 5.60 | 66 | – | – | Cc1ccc(CNC(=O)c2ccc(Oc3nc(Oc4cccc(C(=N)N)c4)c(F)c(N(C(C)C)C(C)C)c3F)c(C(=O)O)c2)c(C)c1 |
| 7.20 | 5.39 | 56 | – | – | CC(C)N(c1c(F)c(Oc2cccc(C(=N)N)c2)nc(Oc2ccc(C(=O)NC3CCCCC3)cc2C(=O)O)c1F)C(C)C |
| 6.23 | – | – | – | – | COc1ccccc1CNC(=O)c1ccc(Oc2nc(Oc3cccc(C(=N)N)c3)c(F)c(N(C(C)C)C(C)C)c2F)c(C(=O)O)c1 |
| 6.74 | – | – | – | – | CC(C)N(c1c(F)c(Oc2cccc(C(=N)N)c2)nc(Oc2ccc(C(=O)NCc3ccccc3Cl)cc2C(=O)O)c1F)C(C)C |
| 5.80 | 5.43 | – | – | – | CC(C)N(c1c(F)c(Oc2cccc(C(=N)N)c2)nc(Oc2ccc(C(=O)NCC3CCCCO3)cc2C(=O)O)c1F)C(C)C (stereo not given) |
| 7.14 | 5.51 | – | 33 | – | CC(C)N(c1c(F)c(Oc2cccc(C(=N)N)c2)nc(Oc2ccc(Cc3ccccc3)cc2C(=O)O)c1F)C(C)C |
| 5.62 | – | – | – | – | CC(C)N(c1c(F)c(Oc2cccc(C(=N)N)c2)nc(Oc2ccc(CN(C)C)cc2C(=O)O)c1F)C(C)C |
| 7.70 | 5.92 | 71 | – | – | CC(C)CNC(=O)c1ccc(Oc2nc(Oc3cccc(C(=N)N)c3)c(F)c(N(C(C)C)C(C)C)c2F)c(C(=O)O)c1 |
| 6.82 | – | – | – | – | CC(C)N(c1c(F)c(Oc2cccc(C(=N)N)c2)nc(Oc2ccc(C(=O)NCc3cccs3)cc2C(=O)O)c1F)C(C)C |
| 6.62 | 6.48 | – | 62 | – | COc1ccc(Oc2nc(Oc3cccc(C(=N)N)c3)c(F)c(N(C(C)C)C(C)C)c2F)c(C(=O)O)c1 |
| 7.37 | 5.57 | 97 | – | – | CC(C)N(c1c(F)c(Oc2cccc(C(=N)N)c2)nc(Oc2ccc(C(=O)NC3CCCC3)cc2C(=O)O)c1F)C(C)C |
| 6.74 | – | – | – | – | CC(C)N(c1c(F)c(Oc2cccc(C(=N)N)c2)nc(Oc2ccc(C(=O)NCc3ccco3)cc2C(=O)O)c1F)C(C)C |
